Experimental data taken from patent US20260242360A1, “Novel Compound, and Pharmaceutical Composition for Prevention or Treatment of Cancer or Tumors Comprising Same” (Daewoong Pharmaceutical Co., Ltd., priority 2023, published 2026).

Assays:
Assay type in all cases: cell-based
[1] = tested on: transcription factor TEAD; assay: Activity inhibition test of transcription factor TEAD (ONE-Glo luciferase assay, Hippo Pathway TEAD reporter-MCF7 cell line); conditions: Homo sapiens; TEAD Reporter-MCF7 cells, 24 hours treatment, luciferase luminescence
Protocol: The transcription factor TEAD activity of the compounds prepared in Examples was measured by the ONE-Glo™ Luciferase assay (Promega, Catalog #E6110) method using the Hippo Pathway TEAD reporter-MCF7 recombinant cell line (BPS Bioscience, Catalog #60618).
Specifically, the TEAD Reporter-MCF7 cell line contains the firefly luciferase gene whose expression is regulated under the control of TEAD response elements in the MCF7, which is a human breast cancer cell line. In the cell line, a non-phosphorylated YAP/TAZ exists in the nucleus in a non-stressed condition, which continuously induces expression of the luciferase reporter.
TEAD Reporter-MCF7 cells were prepared in 100 μL of cell culture medium (MEM medium, 10% FBS, 1% P/S, 400 μg/mL Geneticin, 1% […], 1 mM NA pyruvate, 10 μg/mL Insulin) in a white clear bottom 96-well microplate. The prepared plate was incubated in a 5% CO2 incubator at 37° C. for 24 hours, and then the previously prepared compounds of Examples were finally treated at concentrations of 0.0005, 0.005, 0.05, 0.5 and 5 μM, which were repeated three times for all treatment solutions. The plates treated with the compounds of Examples were incubated in a 5% CO2 incubator at 37° C. for 24 hours. 100 μL/well of the substrate aqueous solution containing luciferin was added to a white clear-bottom 96 well microplate, thereby initiating an enzyme reaction. The reaction was performed at room temperature for 5 minutes, and the luminescence (integration time 1000 ms) was measured using a Flexstation3 multi-mode microplate reader. In accordance with the instructions for the ONE-Glo™ Luciferase Assay, the luciferase enzyme activity, which represents the activity of the transcription factor TEAD, was measured by a chemiluminescence method, and the inhibitory activity of the compound according to the present disclosure was calculated. The results of each compound were analyzed using Microsoft Excel, and the IC50 values were calculated by GraphPad Prism software.

NCI-H226 cells = assay: Cell growth inhibition test (CellTiter-Glo), NCI-H226; conditions: Homo sapiens, NCI-H226 cell line
Protocol: (§1) The cell growth for the compounds prepared in Examples was measured by CellTiter-Glo® Luminescednt Cell Viability (Promega, Catalog #G7571) method using NCI-H226 (addexbio), NCI-H28 (Korea Cell Line Bank) cell lines. This evaluation method is a method in which when luciferase enzyme is activated by ATP flowing out from living cells, it reacts with a luciferin substrate, and the enzyme activity at this time is measured to confirm cell viability.
(§2) Specifically, NCI-H226, and NCI-H28 cells were prepared in 100 μL of cell culture medium (RPMI medium, 10% FBS, 1% P/S, 4.5 g/L D-Glucose, 2.383 g/L HEPES Buffer, L-Glutamine, 1.5 g/L Sodium Bicarbonate, 110 mg/L Sodium pyruvate) in a white clear bottom 96-well microplate. The prepared plate was incubated in a 5% CO2 incubator at 37° C. for 24 hours, and then the previously prepared compounds of Examples were finally treated at concentrations of 0.0005, 0.005, 0.05, 0.5 and 5 μM, which was repeated three times for all treatment solutions.
(§3) The plates treated with the compounds of Examples were incubated in a 5% CO2 incubator at 37° C. 100 μL/well of the substrate aqueous solution containing luciferin was added to a white clear-bottom 96 well microplate, thereby initiating an enzyme reaction. The reaction was performed at room temperature in the dark for 10 minutes, and the luminescence was measured using a Flexstation3 multi-mode microplate reader. In accordance with the instructions for the CellTiter-Glo™ Luminescednt Cell Viability, the luciferase enzyme activity, which represents the amount of ATP, was measured by a chemiluminescence method, and the inhibitory activity of the compounds according to the present disclosure was calculated. The results of each compound were analyzed using Microsoft Excel, and the IC50 values were calculated using GraphPad Prism software.

NCI-H28 cells = assay: Cell growth inhibition test (CellTiter-Glo), NCI-H28; conditions: Homo sapiens, NCI-H28 cell line
Protocol: as §1, §2, §3

IC50 [1]	IC50 (NCI-H226 cells)	IC50 (NCI-H28 cells)	SMILES
9.4 nM	21 nM	> 5000 nM	C=CC(=O)Nc1cc(-c2cn(C)cn2)c2[nH]c(-c3ccc(Cl)cc3)cc2c1 [Example 1, N-(2-(4-chlorophenyl)-7-(1-methyl-1H-imidazol-4-yl)-1H-indol-5-yl)acrylamide]
39 nM	65 nM	4140 nM	C=CC(=O)Nc1cc(-c2cn(C)cn2)c2[nH]c(-c3ccc(C(F)(F)F)cc3)cc2c1 [Example 2, N-(7-(1-methyl-1H-imidazol-4-yl)-2-(4-(trifluoromethyl)phenyl)-1H-indol-5-yl)acrylamide]
3.5 nM	2.5 nM	1530 nM	C=CC(=O)Nc1cc(-c2cn(C)cn2)c2[nH]c(-c3ccc(F)cc3)cc2c1 [Example 3, N-(2-(4-fluorophenyl)-7-(1-methyl-1H-imidazol-4-yl)-1H-indol-5-yl)acrylamide]
30 nM	10 nM	4400 nM	C=CC(=O)Nc1cc(-c2cn(C)cn2)c2[nH]c(-c3ccccc3)cc2c1 [Example 4, N-(7-(1-methyl-1H-imidazol-4-yl)-2-phenyl-1H-indol-5-yl)acrylamide]
6.4 nM	4.2 nM	> 5000 nM	C=CC(=O)Nc1cc(-c2cn(C)cn2)c2[nH]c(-c3ccc(F)cc3F)cc2c1 [Example 5, N-(2-(2,4-difluorophenyl)-7-(1-methyl-1H-imidazol-4-yl)-1H-indol-5-yl)acrylamide]
5.9 nM	4.4 nM	4000 nM	C=CC(=O)Nc1cc(-c2cn(C)cn2)c2[nH]c(-c3cc(F)c(F)c(F)c3)cc2c1 [Example 6, N-(7-(1-methyl-1H-imidazol-4-yl)-2-(3,4,5-trifluorophenyl)-1H-indol-5-yl)acrylamide]
110 nM	57 nM	950 nM	C=CC(=O)Nc1cc(-c2cn(C)cn2)c2[nH]c(-c3ccc(Cl)c(Cl)c3)cc2c1 [Example 8, N-(2-(3,4-dichlorophenyl)-7-(1-methyl-1H-imidazol-4-yl)-1H-indol-5-yl)acrylamide]
20 nM	5.3 nM	2950 nM	C=CC(=O)Nc1cc(-c2cn(C)cn2)c2[nH]c(-c3ccc(F)c(F)c3)cc2c1 [Example 9, N-(2-(3,4-difluorophenyl)-7-(1-methyl-1H-imidazol-4-yl)-1H-indol-5-yl)acrylamide]
60 nM	20 nM	2470 nM	C=CC(=O)Nc1cc(-c2cn(C)cn2)c2[nH]c(-c3cccc(Cl)c3)cc2c1 [Example 10, N-(2-(3-chlorophenyl)-7-(1-methyl-1H-imidazol-4-yl)-1H-indol-5-yl)acrylamide]
79 nM	22.5 nM	2800 nM	C=CC(=O)Nc1cc(-c2cn(C)cn2)c2[nH]c(-c3ccc(Cl)cc3F)cc2c1 [Example 12, N-(2-(4-chloro-2-fluorophenyl)-7-(1-methyl-1H-imidazol-4-yl)-1H-indol-5-yl)acrylamide]
46 nM	22.3 nM	3500 nM	C=CC(=O)Nc1cc(-c2cn(C)cn2)c2[nH]c(C3=CCCCC3)cc2c1 [Example 13, N-(2-cyclohexenyl-7-(1-methyl-1H-imidazol-4-yl)-1H-indol-5-yl)acrylamide]
49 nM	25.1 nM	2300 nM	C=CC(=O)Nc1cc(-c2cn(C)cn2)c2[nH]c(-c3ccc(F)c(C)c3)cc2c1 [Example 14, N-(2-(4-fluoro-3-methylphenyl)-7-(1-methyl-1H-imidazol-4-yl)-1H-indol-5-yl)acrylamide]
190 nM	210 nM	438 nM	Cn1cnc(-c2cc(NS(C)(=O)=O)cc3cc(-c4cccc(C(F)(F)F)c4)[nH]c23)c1 [Example 19, N-(7-(1-methyl-1H-imidazol-4-yl)-2-(3-(trifluoromethyl)phenyl)-1H-indol-5-yl)methanesulfonamide]
236 nM	> 5000 nM	2220 nM	Cn1cnc(-c2cc(NS(C)(=O)=O)cc3cc(-c4ccc(Cl)cc4)[nH]c23)c1 [Example 21, N-(2-(4-chlorophenyl)-7-(1-methyl-1H-imidazol-4-yl)-1H-indol-5-yl)methanesulfonamide]
15 nM	8.4 nM	2300 nM	C=CC(=O)Nc1cc(-c2ccn(C)n2)c2[nH]c(-c3ccc(Cl)cc3)cc2c1 [Example 28, N-(2-(4-chlorophenyl)-7-(1-methyl-1H-pyrazol-3-yl)-1H-indol-5-yl)acrylamide]
126 nM	339 nM	553 nM	C=CC(=O)Nc1cc(-c2ccccn2)c2[nH]c(-c3ccc(Cl)c(Cl)c3)cc2c1 [Example 30, N-(2-(3,4-dichlorophenyl)-7-(pyridin-2-yl)-1H-indol-5-yl)acrylamide]
30 nM	12 nM	1770 nM	C=CC(=O)Nc1cc(-c2ccccn2)c2[nH]c(-c3ccc(F)cc3)cc2c1 [Example 31, N-(2-(4-fluorophenyl)-7-(pyridin-2-yl)-1H-indol-5-yl)acrylamide]
23 nM	7.6 nM	1360 nM	C=CC(=O)Nc1cc(-c2ccn(C)n2)c2[nH]c(-c3ccc(F)cc3)cc2c1 [Example 32, N-(2-(4-fluorophenyl)-7-(1-methyl-1H-pyrazol-3-yl)-1H-indol-5-yl)acrylamide]
51 nM	24.3 nM	4910 nM	C=CC(=O)Nc1cc(-c2ccn(C)n2)c2[nH]c(-c3ccc(F)cc3F)cc2c1 [Example 33, N-(2-(2,4-difluorophenyl)-7-(1-methyl-1H-pyrazol-3-yl)-1H-indol-5-yl)acrylamide]
100 nM	137 nM	> 5000 nM	Cn1cnc(-c2cc(C(=O)O)cc3cc(-c4ccc(F)cc4)[nH]c23)c1 [Example 35, 2-(4-fluorophenyl)-7-(1-methyl-1H-imidazol-4-yl)-1H-indole-5-carboxylic acid]
26 nM	134 nM	759 nM	Cn1cnc(-c2cc(C(=O)O)cc3cc(-c4ccc(Cl)cc4)[nH]c23)c1 [Example 37, 2-(4-chlorophenyl)-7-(1-methyl-1H-imidazol-4-yl)-1H-indole-5-carboxylic acid]
36 nM	21.9 nM	> 5000 nM	Cn1cnc(-c2cc(C(=O)O)cc3cc(-c4ccc(Cl)c(F)c4)[nH]c23)c1 [Example 39, 2-(4-chloro-3-fluorophenyl)-7-(1-methyl-1H-imidazol-4-yl)-1H-indole-5-carboxylic acid]
97 nM	4.5 nM	2080 nM	C=CC(=O)Nc1cc(-c2cn(C)cn2)c2[nH]c(-c3cccc(F)c3)cc2c1 [Example 42, N-(2-(3-fluorophenyl)-7-(1-methyl-1H-imidazol-4-yl)-1H-indol-5-yl)acrylamide]
54 nM	7.8 nM	> 5000 nM	Cn1cnc(-c2cc(C(=O)O)cc3cc(-c4ccc(F)c(F)c4)[nH]c23)c1 [Example 43, 2-(3,4-difluorophenyl)-7-(1-methyl-1H-imidazol-4-yl)-1H-indole-5-carboxylic acid]
37 nM	21.7 nM	1900 nM	C=CC(=O)Nc1cc(-c2cn(C)cn2)c2[nH]c(-c3ccc(F)c(Cl)c3)cc2c1 [Example 44, N-(2-(3-chloro-4-fluorophenyl)-7-(1-methyl-1H-imidazol-4-yl)-1H-indol-5-yl)acrylamide]
